In assay [1] the target is hNurr1_RXRαFL (NURR1/RXRα heterodimer) (Homo sapiens, UniProt P19793+P43354). Briefly: Transactivation assay in Cos-7 cells, NURR-1-Gal4 / RXRα, luciferase reporter. It counts as cell-based. The note with it: for Emax: COS-7, read-out: hNurr1_RXRαFL Eff (%), efficacy in % relative to the reference XCT0135908 at 2·10^−5 M (=100%); for EC50: Cos-7 cells, overnight incubation. The method, boiled down: (§1)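 Efficiency is given as a percentage of the induction produced by 2·10^−5 M XCT0135908 (100%), measured from heterodimer baseline. Read-out was luciferase after overnight exposure to compounds (10^−4–3·10^−10 M final) in Cos-7 cells transfected with NURR-1-Gal4, RXRα or RXRγ, and a Gal4 luciferase reporter.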
Sequence of hNurr1_RXRαFL (NURR1/RXRα heterodimer) (P19793 whole entry, the tested form may be a part): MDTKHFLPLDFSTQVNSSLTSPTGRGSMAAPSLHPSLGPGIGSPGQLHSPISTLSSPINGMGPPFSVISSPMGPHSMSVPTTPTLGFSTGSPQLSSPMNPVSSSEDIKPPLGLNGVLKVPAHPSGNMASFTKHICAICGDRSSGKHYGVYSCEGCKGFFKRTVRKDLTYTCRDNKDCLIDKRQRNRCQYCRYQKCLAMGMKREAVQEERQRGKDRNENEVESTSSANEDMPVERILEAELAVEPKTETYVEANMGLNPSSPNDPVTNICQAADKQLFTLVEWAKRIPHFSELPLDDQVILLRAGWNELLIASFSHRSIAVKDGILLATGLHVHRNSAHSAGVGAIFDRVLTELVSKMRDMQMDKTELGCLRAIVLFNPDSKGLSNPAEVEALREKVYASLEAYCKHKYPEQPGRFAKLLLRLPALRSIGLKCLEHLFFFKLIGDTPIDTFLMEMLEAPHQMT
Sequence of hNurr1_RXRαFL (NURR1/RXRα heterodimer) (P43354 328-598): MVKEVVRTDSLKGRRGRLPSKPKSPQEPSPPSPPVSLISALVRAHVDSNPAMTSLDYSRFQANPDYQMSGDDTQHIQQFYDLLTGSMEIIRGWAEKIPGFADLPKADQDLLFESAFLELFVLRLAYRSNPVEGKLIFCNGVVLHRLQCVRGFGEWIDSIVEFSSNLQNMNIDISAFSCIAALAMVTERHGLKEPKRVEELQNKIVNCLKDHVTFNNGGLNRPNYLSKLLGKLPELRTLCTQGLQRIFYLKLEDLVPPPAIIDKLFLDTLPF
For orientation: In a reporter assay the amount or activity of a reporter protein is the signal.

In assay [2] the target is hNurr1_RXRγFL (NURR1/RXRγ heterodimer) (Homo sapiens, UniProt P43354+P48443). The experiment in a line: Transactivation assay in Cos-7 cells, NURR-1-Gal4 / RXRγ, luciferase reporter. It counts as cell-based. The following applies: for Emax: COS-7, read-out: hNurr1_RXRγFL Eff (%), efficacy in % relative to the reference XCT0135908 at 2·10^−5 M (=100%); for EC50: Cos-7 cells, overnight incubation. The method, boiled down: as §1
Sequence of hNurr1_RXRγFL (NURR1/RXRγ heterodimer) (P43354 328-598): as above
Sequence of hNurr1_RXRγFL (NURR1/RXRγ heterodimer) (P48443 whole entry, the tested form may be a part): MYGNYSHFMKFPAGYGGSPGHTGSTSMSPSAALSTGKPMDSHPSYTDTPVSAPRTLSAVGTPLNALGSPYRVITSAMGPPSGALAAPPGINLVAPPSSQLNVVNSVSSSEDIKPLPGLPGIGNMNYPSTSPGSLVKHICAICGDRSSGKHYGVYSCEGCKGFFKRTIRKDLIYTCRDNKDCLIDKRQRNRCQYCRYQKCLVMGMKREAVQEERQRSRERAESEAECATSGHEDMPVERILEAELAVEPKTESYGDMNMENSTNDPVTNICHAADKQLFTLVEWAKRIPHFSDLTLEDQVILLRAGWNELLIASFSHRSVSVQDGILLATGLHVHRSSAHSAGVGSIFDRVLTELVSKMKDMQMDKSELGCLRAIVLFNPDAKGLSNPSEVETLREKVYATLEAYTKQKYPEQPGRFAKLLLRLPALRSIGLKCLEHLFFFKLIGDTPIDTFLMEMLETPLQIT

The EC50 is the concentration giving half of the maximal effect. Higher therefore signals lower potency in that assay. As for `Cc1cccc(S(=O)(=O)n2c(Cc3ccc(C(=O)O)cc3)cc3cc(C(F)(F)F)ccc32)c1` [Example 141, 4-[[1-[(3-methylphenyl)sulfonyl]-5-(trifluoromethyl)-1H-indol-2-yl]methyl]benzoic acid], in assay [1], the Emax came to 41% and the response was half-maximal at 285 nM (EC50). Further, in assay [2], the Emax was 30% and a half-maximal response (EC50) required 364 nM.

For the compound `O=C(O)c1ccc(Cc2cc3cc(C(F)(F)F)ccc3n2S(=O)(=O)c2ccc(OC(F)(F)F)cc2)cc1` [Example 142, 4-[[1-[4-trifluoromethoxy-phenylsulfonyl]-5-(trifluoromethyl)-1H-indol-2-yl]methyl]benzoic acid], the values for the Emax in assay [1] and in assay [2] were 38% and 19%, respectively. For the same compound, the EC50 was determined as 459 nM in assay [1] and 816 nM in assay [2].

Consider `O=C(O)c1ccc(Cc2cc3cc(C(F)(F)F)ccc3n2S(=O)(=O)c2cccc(Cl)c2)cc1` [Example 143, 4-[[1-[3-chloro-phenylsulfonyl]-5-(trifluoromethyl)-1H-indol-2-yl]methyl]benzoic acid], for which the Emax was found to be 33% in assay [1] and 18% in assay [2]. Further, the results for the 50% effective concentration (EC50) in assay [1] and in assay [2] were 339 nM and 425 nM, respectively.

`O=C(O)c1ccc(Cc2cc3cc(C(F)(F)F)ccc3n2S(=O)(=O)c2ccc(Oc3ccccc3)cc2)cc1` [Example 144, 4-[[1-[4-phenoxy-phenylsulfonyl]-5-(trifluoromethyl)-1H-indol-2-yl]methyl]benzoic acid]: in assay [1], the Emax was 30% and the response was half-maximal at 839 nM (EC50). Besides, in assay [2], the Emax was found to be 19% and the 50% effective concentration (EC50) was over 10000 nM.

In the case of `O=C(O)c1ccc(Cc2cc3cc(C(F)(F)F)ccc3n2S(=O)(=O)c2cccc(OC(F)(F)F)c2)cc1` [Example 145, 4-[[1-[3-trifluoromethoxy-phenylsulfonyl]-5-(trifluoromethyl)-1H-indol-2-yl]methyl]benzoic acid], in assay [1], the Emax stood at 44% and the concentration giving a half-maximal response (EC50) came out at 359 nM. Besides, in assay [2], the Emax stood at 21% and the EC50 came to 638 nM.

Take `O=C(O)c1ccc(Cc2cc3cc(C(F)(F)F)ccc3n2S(=O)(=O)c2cccc(-c3ccc(Cl)cc3)c2)cc1` [Example 146, 4-[[1-[4′-chloro-biphenyl-3-sulfonyl]-5-(trifluoromethyl)-1H-indol-2-yl]methyl]benzoic acid]: in assay [1], the Emax stood at 43% and a half-maximal effect (EC50) was put at 619 nM. In addition, in assay [2], the Emax was 24% and the midpoint of the response, the EC50, lay at 1180 nM.

Turning to `O=C(O)c1ccc(Cc2cc3cc(C(F)(F)F)ccc3n2S(=O)(=O)c2ccc(Cl)c(OC(F)F)c2)cc1` [Example 147, 4-[[1-[4-chloro-3-difluoromethoxy-phenylsulfonyl]-5-(trifluoromethyl)-1H-indol-2-yl]methyl]benzoic acid], the Emax is 49% in assay [1] and 30% in assay [2]. The EC50 was found to be 825 nM in assay [1] and 1100 nM in assay [2].

`COC(=O)c1ccc(Cc2c(F)c3cc(C(F)(F)F)ccc3n2S(=O)(=O)c2cccc(C(C)(C)C)c2)cc1` [Example 148, 4-[[1-[[3-(1,1-dimethylethyl)phenyl]sulfonyl]-3-fluoro-5-(trifluoromethyl)-1H-indol-2-yl]methyl]-benzoic acid, methyl ester]: in assay [1], the Emax is 119% and the EC50 is 62 nM. Besides, in assay [2], the Emax came out at 101% and the EC50 is 121 nM.

On to `CC(C)(C)c1cccc(S(=O)(=O)n2c(Cc3ccc(C(=O)O)cc3)c(F)c3cc(C(F)(F)F)ccc32)c1` [Example 149, 4-[[1-[[3-(1,1-dimethylethyl)phenyl]sulfonyl]-3-fluoro-5-(trifluoromethyl)-1H-indol-2-yl]methyl]-benzoic acid], for which, in assay [1], the Emax came to 98% and the response was half-maximal at 94 nM (EC50). Also, in assay [2], the Emax came out at 80% and the EC50 was 225 nM.

For the compound `O=C(O)c1ccc(Cc2cc3cc(Cl)ccc3n2S(=O)(=O)c2ccc(F)c(Cl)c2)cc1` [Example 150, 4-[[1-[3-chloro-4-fluoro-phenylsulfonyl]-5-(chloro)-1H-indol-2-yl]methyl]benzoic acid], in assay [1], the Emax came to 103% and the EC50 came out at 299 nM. Further, in assay [2], the Emax was found to be 96% and the EC50 was 501 nM.

For `O=C(O)c1ccc(Cc2cc3cc(Cl)ccc3n2S(=O)(=O)c2ccc(-c3ccccc3)cc2)cc1` [Example 151, 4-[[1-[biphenyl-4-sulfonyl]-5-(chloro)-1H-indol-2-yl]methyl]benzoic acid], in assay [1], the Emax was 80% and the EC50 stood at 427 nM. In addition, in assay [2], the Emax was 17% and the 50% effective concentration (EC50) was over 10000 nM.

Regarding `CCCc1ccc(S(=O)(=O)n2c(Cc3ccc(C(=O)O)cc3)cc3cc(Cl)ccc32)cc1` [Example 152, 4-[[1-[4-propyl-phenylsulfonyl]-5-(chloro)-1H-indol-2-yl]methyl]benzoic acid], in assay [1], the Emax came to 87% and the EC50 turned out to be 269 nM. Besides, in assay [2], the Emax is 75% and the response was half-maximal at 858 nM (EC50).

With `O=C(O)c1ccc(Cc2cc3cc(Cl)ccc3n2S(=O)(=O)c2ccc(F)c(F)c2)cc1` [Example 153, 4-[[1-[3-fluoro-4-fluoro-phenylsulfonyl]-5-(chloro)-1H-indol-2-yl]methyl]benzoic acid], in assay [1], the Emax worked out at 85% and the response was half-maximal at 851 nM (EC50). Moreover, in assay [2], the Emax worked out at 63% and it took 1390 nM to reach a half-maximal effect (EC50).

For `O=C(O)c1ccc(Cc2cc3cc(Cl)ccc3n2S(=O)(=O)c2cccc(F)c2)cc1` [Example 154, 4-[[1-[3-fluoro-phenylsulfonyl]-5-(chloro)-1H-indol-2-yl]methyl]benzoic acid], in assay [1], the Emax turned out to be 68% and the midpoint of the response, the EC50, lay at 472 nM. Also, in assay [2], the Emax amounted to 66% and it took 1360 nM to reach a half-maximal effect (EC50).

With `CC(C)(C)c1ccc(S(=O)(=O)n2c(Cc3ccc(C(=O)O)cc3)cc3cc(Cl)ccc32)cc1` [Example 155, 4-[[1-[4-tert-butyl-phenylsulfonyl]-5-(chloro)-1H-indol-2-yl]methyl]benzoic acid], in assay [1], the Emax was found to be 69% and the EC50 was determined as 262 nM. For the same compound, in assay [2], the Emax is 59% and the EC50 stood at 468 nM.

For the compound `O=C(O)c1ccc(Cc2cc3cc(Cl)ccc3n2S(=O)(=O)c2ccc(OC(F)(F)F)cc2)cc1` [Example 156, 4-[[1-[4-trifluoromethoxy-phenylsulfonyl]-5-(chloro)-1H-indol-2-yl]methyl]benzoic acid], in assay [1], the Emax was found to be 69% and the EC50 was determined as 638 nM. Moreover, in assay [2], the Emax came out at 43% and the concentration for a half-maximal effect (EC50) was determined as 1300 nM.

For the compound `O=C(O)c1ccc(Cc2cc3cc(Cl)ccc3n2S(=O)(=O)c2ccc3c(c2)OCCO3)cc1` [Example 157, 4-[[1-[2,3-dihydro-benzo[1,4]dioxin-6-sulfonyl]-5-(chloro)-1H-indol-2-yl]methyl]benzoic acid], in assay [1], the Emax stood at 67% and the 50% effective concentration (EC50) amounted to 267 nM. Further, in assay [2], the Emax stood at 64% and the EC50 is 838 nM.

With `O=C(O)c1ccc(Cc2cc3cc(Cl)ccc3n2S(=O)(=O)c2ccc(C(F)(F)F)cc2)cc1` [Example 158, 4-[[1-[4-trifluoro-phenylsulfonyl]-5-(chloro)-1H-indol-2-yl]methyl]benzoic acid], in assay [1], the Emax came out at 66% and a half-maximal response (EC50) required 504 nM. In addition, in assay [2], the Emax stood at 53% and the half-maximal effective concentration (EC50) was found to be 1260 nM.

For `CCc1ccc(S(=O)(=O)n2c(Cc3ccc(C(=O)O)cc3)cc3cc(Cl)ccc32)cc1` [Example 159, 4-[[1-[4-ethyl-phenylsulfonyl]-5-(chloro)-1H-indol-2-yl]methyl]benzoic acid], in assay [1], the Emax was determined as 66% and the concentration giving a half-maximal response (EC50) came to 319 nM. Moreover, in assay [2], the Emax came to 45% and the EC50 was determined as 785 nM.

In the case of `O=C(O)c1ccc(Cc2cc3cc(Cl)ccc3n2S(=O)(=O)c2ccc(Cl)cc2)cc1` [Example 160, 4-[[1-[4-chloro-phenylsulfonyl]-5-(chloro)-1H-indol-2-yl]methyl]benzoic acid], in assay [1], the Emax came to 59% and a half-maximal response (EC50) required 462 nM. Also, in assay [2], the Emax came out at 55% and the response was half-maximal at 1390 nM (EC50).

`Cc1cccc(S(=O)(=O)n2c(Cc3ccc(C(=O)O)cc3)cc3cc(Cl)ccc32)c1` [Example 161, 4-[[5-chloro-1-[(3-methylphenyl)sulfonyl]-1H-indol-2-yl]methyl]benzoic acid]: in assay [1], the Emax amounted to 59% and the response was half-maximal at 460 nM (EC50). In addition, in assay [2], the Emax turned out to be 40% and the EC50 came to 584 nM.

Regarding `CC(C)Oc1ccc(S(=O)(=O)n2c(Cc3ccc(C(=O)O)cc3)cc3cc(Cl)ccc32)cc1` [Example 162, 4-[[1-[4-isopropoxy-phenylsulfonyl]-5-(chloro)-1H-indol-2-yl]methyl]benzoic acid], in assay [1], the Emax was found to be 56% and the concentration giving a half-maximal response (EC50) was found to be 692 nM. In assay [2], the Emax is 40% and a half-maximal response (EC50) required 1550 nM.

For `O=C(O)c1ccc(Cc2cc3cc(Cl)ccc3n2S(=O)(=O)c2ccc3ccccc3c2)cc1` [Example 163, 4-[[5-chloro-1-(2-naphthalenylsulfonyl)-1H-indol-2-yl]methyl]benzoic acid], the Emax in assay [1] came to 53%; in assay [2], 34%. The EC50 came out at 427 nM in assay [1] and 933 nM in assay [2].

With `O=C(O)c1ccc(Cc2cc3cc(Cl)ccc3n2S(=O)(=O)c2cccc(Cl)c2)cc1` [Example 164, 4-[[1-[3-chloro-phenylsulfonyl]-5-(chloro)-1H-indol-2-yl]methyl]benzoic acid], in assay [1], the Emax turned out to be 53% and the EC50 was 753 nM. In assay [2], the Emax worked out at 47% and a half-maximal effect (EC50) was put at 851 nM.

For the origin of these results see US20120232070A1, “Use of Indole Derivatives as Nurr-1 Activators for the Application Thereof as a Medicament for the Treatment of Parkinson's Disease” (Laboratoires Fournier SA, priority 2009, published 2012).
